{
  "source": "paper PMC6112376",
  "about": "“Comprehensive Analyses and Prioritization of Tox21 10K Chemicals Affecting Mitochondrial Function by in-Depth Mechanistic Studies” (Environmental Health Perspectives, 2018)",
  "key": {"HepG2 cells [1]": {"test_system": "HepG2 cells", "assay": "cells", "conditions": "Homo sapiens"}, "hNSC": {"test_system": "hNSC", "assay": "MMP assay in human neural stem cells (hNSC)", "assay_type": "cell-based", "conditions": "Homo sapiens, Neural stem cell; 1 h treatment; fresh re-sourced stocks; mean±SD of three experiments; read-out: hNSC IC50 (MMP)"}, "rat primary hepatocytes": {"test_system": "rat primary hepatocytes", "assay": "MMP assay in rat primary hepatocytes", "conditions": "for IC50: Rattus norvegicus, Hepatocyte"}, "[2]": {"test_system": "Caenorhabditis elegans strain PE255", "assay": "In vivo C. elegans ATP status assay"}, "[3]": {"test_system": "Nrf2/ARE (ARE-bla HepG2 cells)", "assay": "ARE β-lactamase reporter gene assay", "assay_type": "cell-based, human", "conditions": "Homo sapiens, HepG2; 16 h incubation; mean±SD of three experiments; read-out: ARE (HepG2) EC50"}, "HepG2 cells [4]": {"test_system": "HepG2 cells", "assay": "ROS-Glo hydrogen peroxide (ROS) assay", "assay_type": "cell-based, human", "conditions": "2 h treatment; mean±SD of three experiments"}, "HepG2 cells [5]": {"test_system": "HepG2 cells", "assay": "Intracellular ATP content (cell viability) assay", "assay_type": "cell-based, human", "conditions": "40 h treatment, mean±SD of three experiments"}, "[6]": {"test_system": "p53 (p53-bla HCT-116 cells)", "assay": "p53 β-lactamase reporter gene assay", "assay_type": "cell-based, human", "conditions": "16 h incubation; mean±SD of three experiments"}, "[7]": {"test_system": "Caenorhabditis elegans (Bristol N2)", "assay": "C. elegans larval development and growth assay"}, "[8]": {"test_system": "isolated rat liver mitochondria", "assay": "Oxygen consumption, Clark-type oxygen electrode", "assay_type": "biochemical", "conditions": "for I-ADP, % of control (O2 consumption rate): glutamate/malate driven state 3 respiration; for I-ADP, % of control (O2 consumption rate) / I-sub, % of control (O2 consumption rate) / II-ADP, % of control (O2 consumption rate) / II-sub, % of control (O2 consumption rate): isolated rat liver mitochondria; for I-sub, % of control (O2 consumption rate): glutamate/malate driven state 4 respiration; for II-ADP, % of control (O2 consumption rate): succinate-driven state 3 respiration; for II-sub, % of control (O2 consumption rate): succinate-driven state 4 respiration"}, "HepG2 cells [9]": {"test_system": "HepG2 cells", "conditions": "10 mM galactose, no glucose; 1 h treatment; mean±SD of three experiments"}, "[10]": {"test_system": "HeLa cells expressing YFP-Parkin", "assay": "Parkin translocation assay", "assay_type": "cell-based, human", "conditions": "HeLa cells stably expressing YFP-Parkin; treated for 2 h"}, "HepG2 cells [11]": {"test_system": "HepG2 cells", "conditions": "cited from earlier work"}},
  "note": "Like-named read-outs stand apart in the source and are kept apart here.",
  "data": [
    {"smiles": "O=C(O)c1cc(O)c2c(c1)C(=O)c1cccc(O)c1C2=O", "note": "[Rhein]", "values": [
      {"measurement": "IC50", "setting": "HepG2 cells [1]; HepG2, 1 h, read-out: HepG2 IC50 Glucose (MMP)", "value": "15.2 ± 1.76", "unit": "µM"},
      {"measurement": "IC50", "setting": "HepG2 cells [1]; HepG2, read-out: MMP assays IC50 (µM) HepG2", "value": 8.91, "unit": "µM"},
      {"measurement": "Emax", "setting": "HepG2 cells [1]; HepG2, read-out: MMP assays efficacy (%) HepG2", "value": 86, "unit": "%"},
      {"measurement": "IC50", "setting": "hNSC", "value": "10.3 ± 3.4", "unit": "µM"},
      {"measurement": "Rat hepatocytes (efficacy) (MMP)", "setting": "rat primary hepatocytes; % of positive control, mean±SD of three experiments", "value": "−37.5±6.05", "unit": "%"},
      {"measurement": "IC50", "setting": "rat primary hepatocytes; 1 h, read-out: Rat hepatocytes IC50 (MMP)", "value": "6.76 ± 4.03", "unit": "µM"},
      {"measurement": "IC50", "setting": "rat primary hepatocytes; read-out: MMP assays IC50 (µM) Rat Hepatocytes", "value": "11.6 ± 4.85", "unit": "µM"},
      {"measurement": "MMP assays efficacy (%) Rat Hepatocytes", "setting": "rat primary hepatocytes; rat hepatocytes, mean ± SD of three experiments", "value": "-80±28", "unit": "%"},
      {"measurement": "LUM: mean difference in luminescence (ATP content) relative to plate controls", "setting": "[2]; 0.05 µM", "value": -0.02422},
      {"measurement": "LUM: mean difference in luminescence (ATP content) relative to plate controls", "setting": "[2]; 0.1 µM", "value": 0.007311},
      {"measurement": "LUM: mean difference in luminescence (ATP content) relative to plate controls", "setting": "[2]; 0.5 µM", "value": 0.006998},
      {"measurement": "LUM: mean difference in luminescence (ATP content) relative to plate controls", "setting": "[2]; 1 µM", "value": 0.1053},
      {"measurement": "LUM: mean difference in luminescence (ATP content) relative to plate controls", "setting": "[2]; 5 µM", "value": 0.1063},
      {"measurement": "LUM: mean difference in luminescence (ATP content) relative to plate controls", "setting": "[2]; 10 µM", "value": 0.1127},
      {"measurement": "LUM: mean difference in luminescence (ATP content) relative to plate controls", "setting": "[2]; 25 µM", "value": 0.2215},
      {"measurement": "LUM: mean difference in luminescence (ATP content) relative to plate controls", "setting": "[2]; 50 µM", "value": 0.2804},
      {"measurement": "LUM: mean difference in luminescence (ATP content) relative to plate controls", "setting": "[2]; 75 µM", "value": 0.1816},
      {"measurement": "LUM: mean difference in luminescence (ATP content) relative to plate controls", "setting": "[2]; 100 µM", "value": 0.2365},
      {"measurement": "EC50", "setting": "[3]", "value": "15.4 ± 8.38", "unit": "µM"},
      {"measurement": "ROS (HepG2) EC50", "setting": "HepG2 cells [4]", "value": "Inactive"},
      {"measurement": "ATP (HepG2, glucose) IC50", "setting": "HepG2 cells [5]; 5 mM glucose", "value": "Inactive"},
      {"measurement": "ATP (HepG2, galactose) IC50", "setting": "HepG2 cells [5]; 10 mM galactose", "value": "Inactive"},
      {"measurement": "p53 (HCT-116) EC50", "setting": "[6]", "value": "Inactive"},
      {"measurement": "EXT: mean difference in nematode size relative to plate controls", "setting": "[7]; 0.5 µM", "value": 0.02304},
      {"measurement": "EXT: mean difference in nematode size relative to plate controls", "setting": "[7]; 1 µM", "value": 0.01629},
      {"measurement": "EXT: mean difference in nematode size relative to plate controls", "setting": "[7]; 5 µM", "value": 0.06956},
      {"measurement": "EXT: mean difference in nematode size relative to plate controls", "setting": "[7]; 10 µM", "value": -0.06339},
      {"measurement": "EXT: mean difference in nematode size relative to plate controls", "setting": "[7]; 25 µM", "value": -0.09625},
      {"measurement": "EXT: mean difference in nematode size relative to plate controls", "setting": "[7]; 50 µM", "value": 0.296},
      {"measurement": "EXT: mean difference in nematode size relative to plate controls", "setting": "[7]; 75 µM", "value": 0.2342},
      {"measurement": "EXT: mean difference in nematode size relative to plate controls", "setting": "[7]; 100 µM", "value": 0.2496},
      {"measurement": "I-ADP, % of control (O2 consumption rate)", "setting": "[8]; 4 µM", "value": "90 (49.1) % of control"},
      {"measurement": "I-sub, % of control (O2 consumption rate)", "setting": "[8]; 4 µM", "value": "105 (13.7) % of control"},
      {"measurement": "II-ADP, % of control (O2 consumption rate)", "setting": "[8]; 4 µM", "value": "89 (78.7) % of control"},
      {"measurement": "II-sub, % of control (O2 consumption rate)", "setting": "[8]; 4 µM", "value": "103 (25.4) % of control"},
      {"measurement": "I-ADP, % of control (O2 consumption rate)", "setting": "[8]; 20 µM", "value": "87 (47.4) % of control"},
      {"measurement": "I-sub, % of control (O2 consumption rate)", "setting": "[8]; 20 µM", "value": "127 (16.6) % of control"},
      {"measurement": "II-ADP, % of control (O2 consumption rate)", "setting": "[8]; 20 µM", "value": "87 (76.7) % of control"},
      {"measurement": "II-sub, % of control (O2 consumption rate)", "setting": "[8]; 20 µM", "value": "128 (31.4) % of control"},
      {"measurement": "Potential Mechanism", "setting": "[8]; mitochondrial respiration in isolated rat liver mitochondria, Clark type oxygen electrode, over tested concentrations", "value": "Uncoupler"},
      {"measurement": "HepG2 IC50 Galactose (MMP)", "setting": "HepG2 cells [9]", "value": "Inactive"},
      {"measurement": "Parkin recruitment", "setting": "[10]", "value": "Inactive"},
      {"measurement": "MMP assays efficacy (%) qHTS-HepG2", "setting": "HepG2 cells [11]", "value": "-100±22", "unit": "%"},
      {"measurement": "IC50", "setting": "HepG2 cells [11]; read-out: MMP assays IC50 (µM), qHTS-HepG2", "value": "6.06 ± 5.91", "unit": "µM"}
    ]}
  ]
}
